Laboratory results reported in ChEMBL document CHEMBL1201862, “PubChem BioAssay data set” (2004).
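Dose response: 5 concentrations. Exposure: 48 h. Format: 96-well plates. Endpoint: linear interpolation; highest concentration if not reached. GI50: concentration for 50% inhibition of growth.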 Active and inactive are the calls of the source. No stated cut-off is given here; in the data, active = GI50 up to about 1.1 µM and inactive = higher.

How the values were obtained:
Assay in all cases: inhibition of tumour cell growth, NCI panel, 48 h
RXF 393 = test system: RXF 393
MCF7 = test system: MCF7
A549 = test system: A549
T47D = test system: T47D
HCT-15 = test system: HCT-15
SW-620 = test system: SW-620
MOLT-4 = test system: MOLT-4
BT-549 = test system: BT-549
CCRF-CEM = test system: CCRF-CEM
NCI/ADR-RES = test system: NCI/ADR-RES
MDA-MB-231 = test system: MDA-MB-231
HOP-92 = test system: HOP-92
EKVX = test system: EKVX
UO-31 = test system: UO-31
MDA-MB-435 = test system: MDA-MB-435
KM12 = test system: KM12
CAKI-1 = test system: CAKI-1
OVCAR-8 = test system: OVCAR-8
K562 = test system: K562
ACHN = test system: ACHN
U-251 = test system: U-251
MDA-N = test system: MDA-N
HOP-62 = test system: HOP-62
786-0 = test system: 786-0
SR = test system: SR
Malme-3M = test system: Malme-3M
OVCAR-3 = test system: OVCAR-3
SK-MEL-5 = test system: SK-MEL-5
HCT-116 = test system: HCT-116
SF-539 = test system: SF-539
NCI-H23 = test system: NCI-H23
SNB-19 = test system: SNB-19
SF-295 = test system: SF-295
HCC 2998 = test system: HCC 2998
LOX IMVI = test system: LOX IMVI
OVCAR-5 = test system: OVCAR-5
RPMI-8226 = test system: RPMI-8226
SK-OV-3 = test system: SK-OV-3
NCI-H460 = test system: NCI-H460
DU-145 = test system: DU-145
NCI-H226 = test system: NCI-H226
UACC-62 = test system: UACC-62
COLO 205 = test system: COLO 205
HT-29 = test system: HT-29
PC-3 = test system: PC-3
SK-MEL-2 = test system: SK-MEL-2
UACC-257 = test system: UACC-257
M14 = test system: M14
SN12C = test system: SN12C
NCI-H522 = test system: NCI-H522
IGROV-1 = test system: IGROV-1
SNB-75 = test system: SNB-75
SK-MEL-28 = test system: SK-MEL-28
OVCAR-4 = test system: OVCAR-4
TK-10 = test system: TK-10
HL-60 = test system: HL-60
Hs-578T = test system: Hs-578T
SF-268 = test system: SF-268

With CNC(=O)N(CCC#N)CCN(CCN(C(=O)NC)c1ccccc1)C(=O)NC the GI50 (RXF 393) was > 100 µM (inactive), the GI50 (MCF7) was > 100 µM (inactive) and the GI50 (A549) was > 100 µM (inactive). For the same molecule, the GI50 (T47D) was > 100 µM (inactive), the GI50 (HCT-15) was greater than 100 µM and the GI50 (SW-620) was > 100 µM (inactive). For the same molecule, the GI50 (MOLT-4) was > 100 µM (inactive), the GI50 (BT-549) was > 100 µM (inactive) and the GI50 (CCRF-CEM) was > 100 µM (inactive). The GI50 (NCI/ADR-RES) was > 100 µM (inactive), the GI50 (MDA-MB-231) was > 100 µM (inactive) and the GI50 (HOP-92) was > 100 µM (inactive). The GI50 (EKVX) was > 100 µM (inactive), the GI50 (UO-31) was > 100 µM (inactive) and the GI50 (MDA-MB-435) was > 100 µM (inactive). For the same molecule, the GI50 (KM12) was > 100 µM (inactive), the GI50 (CAKI-1) was > 100 µM (inactive) and the GI50 (OVCAR-8) was > 100 µM (inactive). The GI50 (K562) was > 100 µM (inactive), the GI50 (ACHN) was > 100 µM (inactive) and the GI50 (U-251) was > 100 µM (inactive). The GI50 (MDA-N) was > 100 µM (inactive), the GI50 (HOP-62) was > 100 µM (inactive) and the GI50 (786-0) was > 100 µM (inactive). The GI50 (SR) was > 100 µM (inactive), the GI50 (Malme-3M) was > 100 µM (inactive) and the GI50 (OVCAR-3) was > 100 µM (inactive). For the same molecule, the GI50 (SK-MEL-5) was > 100 µM (inactive), the GI50 (HCT-116) was > 100 µM (inactive) and the GI50 (SF-539) was > 100 µM (inactive). The GI50 (NCI-H23) was > 100 µM (inactive), the GI50 (SNB-19) was > 100 µM (inactive) and the GI50 (SF-295) was > 100 µM (inactive). For the same molecule, the GI50 (HCC 2998) was > 100 µM (inactive), the GI50 (LOX IMVI) was > 100 µM (inactive) and the GI50 (OVCAR-5) was > 100 µM (inactive). The GI50 (RPMI-8226) was > 100 µM (inactive), the GI50 (SK-OV-3) was > 100 µM (inactive) and the GI50 (NCI-H460) was > 100 µM (inactive). The GI50 (DU-145) was > 100 µM (inactive), the GI50 (NCI-H226) was > 100 µM (inactive) and the GI50 (UACC-62) was > 100 µM (inactive). For the same molecule, the GI50 (COLO 205) was > 100 µM (inactive), the GI50 (HT-29) was > 100 µM (inactive) and the GI50 (PC-3) was > 100 µM (inactive). For the same molecule, the GI50 (SK-MEL-2) was > 100 µM (inactive), the GI50 (UACC-257) was > 100 µM (inactive) and the GI50 (M14) was > 100 µM (inactive). For the same molecule, the GI50 (SN12C) was > 100 µM (inactive), the GI50 (NCI-H522) was > 100 µM (inactive) and the GI50 (IGROV-1) was > 100 µM (inactive). For the same molecule, the GI50 (SNB-75) was > 100 µM (inactive), the GI50 (SK-MEL-28) was > 100 µM (inactive) and the GI50 (OVCAR-4) was > 100 µM (inactive). For the same molecule, the GI50 (TK-10) was > 100 µM (inactive).

For CC1(C)CC2C(/C1=N/O)C1(C)CCCC2(C)C1O (centres undefined), the GI50 (MCF7) was > 100 µM (inactive), the GI50 (A549) was > 100 µM (inactive) and the GI50 (T47D) was > 100 µM (inactive). The GI50 (HCT-15) was greater than 100 µM, the GI50 (SW-620) was > 100 µM (inactive) and the GI50 (MOLT-4) was > 100 µM (inactive). For the same molecule, the GI50 (BT-549) was > 100 µM (inactive), the GI50 (CCRF-CEM) was > 100 µM (inactive) and the GI50 (NCI/ADR-RES) was > 100 µM (inactive). For the same molecule, the GI50 (HOP-92) was > 100 µM (inactive), the GI50 (EKVX) was > 100 µM (inactive) and the GI50 (UO-31) was > 100 µM (inactive). For the same molecule, the GI50 (MDA-MB-435) was > 100 µM (inactive), the GI50 (KM12) was > 100 µM (inactive) and the GI50 (CAKI-1) was > 100 µM (inactive). The GI50 (OVCAR-8) was > 100 µM (inactive), the GI50 (K562) was > 100 µM (inactive) and the GI50 (ACHN) was > 100 µM (inactive). The GI50 (U-251) was > 100 µM (inactive), the GI50 (MDA-N) was > 100 µM (inactive) and the GI50 (HOP-62) was > 100 µM (inactive). The GI50 (786-0) was > 100 µM (inactive), the GI50 (HL-60) was > 100 µM (inactive) and the GI50 (SR) was > 100 µM (inactive). The GI50 (Malme-3M) was > 100 µM (inactive), the GI50 (OVCAR-3) was > 100 µM (inactive) and the GI50 (SK-MEL-5) was > 100 µM (inactive). The GI50 (HCT-116) was > 100 µM (inactive), the GI50 (NCI-H23) was > 100 µM (inactive) and the GI50 (SNB-19) was > 100 µM (inactive). The GI50 (SF-295) was > 100 µM (inactive), the GI50 (LOX IMVI) was > 100 µM (inactive) and the GI50 (OVCAR-5) was > 100 µM (inactive). For the same molecule, the GI50 (RPMI-8226) was > 100 µM (inactive), the GI50 (SK-OV-3) was > 100 µM (inactive) and the GI50 (NCI-H460) was > 100 µM (inactive). The GI50 (DU-145) was > 100 µM (inactive), the GI50 (NCI-H226) was > 100 µM (inactive) and the GI50 (UACC-62) was > 100 µM (inactive). The GI50 (COLO 205) was > 100 µM (inactive), the GI50 (HT-29) was > 100 µM (inactive) and the GI50 (PC-3) was > 100 µM (inactive). The GI50 (SK-MEL-2) was > 100 µM (inactive), the GI50 (UACC-257) was > 100 µM (inactive) and the GI50 (M14) was > 100 µM (inactive). For the same molecule, the GI50 (SN12C) was > 100 µM (inactive), the GI50 (NCI-H522) was > 100 µM (inactive) and the GI50 (Hs-578T) was > 100 µM (inactive). For the same molecule, the GI50 (IGROV-1) was > 100 µM (inactive), the GI50 (SNB-75) was > 100 µM (inactive) and the GI50 (SK-MEL-28) was > 100 µM (inactive). For the same molecule, the GI50 (OVCAR-4) was > 100 µM (inactive), the GI50 (TK-10) was > 100 µM (inactive) and the GI50 (SF-268) was > 100 µM (inactive).
